The record followed here is patent US11123355B2, “Antiviral benzyl-amine phosphodiamide compounds” (Merck Sharp & Dohme Corp., priority 2016, dated 2021).

The nature of series [1]: Pharmacokinetic Studies in Dogs - In Vivo Dog PK. The conditions noted are these: dog PBMCs at 24 h following a 10 mg/kg P.O. dose of the prodrug. Set-up: species or system beagle dogs. As to the method: Pharmacokinetic Studies in Dogs—In Vivo Dog PK
Prodrugs were administered to beagle dogs through intravenous (IV) and oral (P.O.) administrations in a non-crossover manner. The IV dose was prepared in 20% hydroxypropyl β-cyclodextrin (HPBCD) or polyethylene glycol 200:ethanol:water (70:10:20 v/v/v). The dose was administered via cephalic or saphenous vein. The P.O. dose was prepared in 10% polysorbate 80 (Tween 80) and was administered via gavage.
Blood samples were serially collected following dose administration for up to 48 hr and plasma was separated by centrifugation. The concentrations of prodrugs in dog plasma were determined by a LC-MS/MS assay following a protein precipitation step and addition of an appropriate internal standard (labetalol, imipramine or diclofenac). Quantification was done by determining peak area-ratios of the prodrugs and tenofovir to the internal standard. Additional blood sample(s) was collected following dose administration for up to 24 hr. […] The concentrations of tenofovir and/or its phosphate conjugate(s) in PBMCs were determined by an LC-MS/MS assay following a protein precipitation step and addition of an appropriate internal standard (labetalol, imipramine or diclofenac). Quantification was done by determining peak area-ratios of tenofovir and/or its phosphate conjugate(s) to the internal standard.
Pharmacokinetic parameters were obtained using non-compartmental methods (Watson®). The area under the plasma concentration-time curve (AUC0-t) was calculated from the first time point (0 min) up to the last time point with measurable drug concentration using the linear trapezoidal or linear/log-linear trapezoidal rule. The IV plasma clearance was calculated by dividing the dose by AUC0-inf. The terminal half-life of elimination was determined by unweighted linear regression analysis of the log-transformed data. […] The volume of distribution at steady state (Vdss) was obtained from the product of plasma clearance and mean residence time (determined by dividing the area under the first moment curve by the area under the curve). […]

Series [2] can be described thus: Prodrug Stability Assay in Bio-Relevant Media (FaSSIF with Pancreatin). Type of series: in vitro ADME. The conditions noted are these: 0.5 mg/mL Pancreatin in FaSSIF, 37° C.; HPLC peak area of prodrug at 5 h divided by that at 0 h. As for the experimental part:
Prodrug Stability Assay in Bio-Relevant Media
The following assay was employed to evaluate the stability of the prodrugs in simulated gastrointestinal tract conditions. Preparation of fasted state simulated intestinal fluid (FaSSIF) using Phares SIF Powder was carried out according to protocols from Phare Drug Delivery AG (Baselland, Switzerland). For sample preparation, 10 μL stock solutions (10 mM) of prodrug substance in DMSO was added to 990 μL of 0.5 mg/mL Pancreatin solution (Fisher CAS #8049-47-6) in FaSSIF. Two samples were prepared for each compound. If the sample was a clear solution, it was directly analyzed by HPLC. If the sample was not clear, the sample was diluted with 100% MeCN, maintained at 37° C. and observed 5 h later. If the sample was clear, HPLC analysis was directly performed. If the sample was still not clear, the sample was diluted with 100% ACN and assayed by HPLC. All the samples were vortexed for 3 min and observed before injection. For the diluted samples, the area is multiplied by a dilution factor when the data is analyzed. The analysis was carried out with an Agilent 1100 series HPLC with autosampler. The column was a Poroshell 120 EC-C18, 4.6×50 mm, 2.7 μm. The flow rate was 1.8 mL/min, and the injection volume was 5 or 10 μL. UV detection was in the range 210-400 nm. The mobile phase consisted of solvent A (water plus 10 mM tetrabutylammonium bromide) and solvent B (acetonitrile) with a gradient of: 90% solvent A at 0 min, changing to 95% solvent B over 6 min, maintaining for 1.5 min, then reverting to 90% solvent A over 1.6 min. The HPLC peak area of the prodrug at 5 h was divided by the HPLC peak area of the prodrug at 0 h, to generate the % claimed parent ratio, which is summarized in Table 2 for gastrointestinal (GI) Tract stability.

The subject of another series is HIV-1 (H9/IIB strain). Briefly: Multiple Round HIV-1 Infection Assay (Viking Assay) in MT4-GFP cells. The conditions noted are these: inhibition of reproductive ratio R0. The series is classed as cell-based. In a few lines:
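Inhibition of the reproductive ratio R0, derived from the rise in GFP-positive cells between ~48 h and ~72 h post-infection, was fitted by 4-parameter regression to give IC50. Cells infected at MOI ~0.01 were exposed to compound (typically 8.4 μM–0.42 nM final) in 10% or 50% normal human serum.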

Setting [3] is: MT4-GFP cells infected with HIV-1, 10% normal human serum, read-out: Viking, IC50 (10% NHS).
Where [4] appears, read: MT4-GFP cells infected with HIV-1, 50% normal human serum, read-out: Viking, IC50 (50% NHS).

What is called IC50 is the point on the concentration scale where inhibition reaches its midpoint.

Where two headings read alike, the source gives them in different places.

As to `CCCOC(=O)C(C)(C)NP(=O)(CO[C@H](C)Cn1cnc2c(N)ncnc21)N[C@@H](C)c1ccc(Cl)cc1` (stereo partly drawn) [Example 13A, propyl 2-(((R)-((((R)-1-(6-amino-9H-purin-9-yl)propan-2-yl)oxy)methyl)(((S)-1-(4-chlorophenyl)ethyl)amino)phosphoryl)ami-no)-2-methylpropanoate and propyl 2-(((S)-((((R)-1-(6-amino-9H-purin-9-yl)propan-2-yl)oxy)methyl)(((S)-1-(4-chlorophenyl)ethyl)amino)phosphoryl)ami-no)-2-methylpropanoate], the “In Vivo Dog PK (μM): TFV-DP concentrations in dog PBMCs” value in series [1] is 15.9 µM. The “GI Tract stability (%)” value in series [2] was 98.5%. The 50% inhibitory concentration (IC50) in the series on HIV-1 (H9/IIB strain) (setting [3]) amounted to 8.4 nM; with HIV-1 (H9/IIB strain) (setting [4]), 75 nM.

As to “propyl 2-(((R)-((((R)-1-(6-amino-9H-purin- 9-yl)propan-2-yl)oxy)methyl)((4- isopropylbenzyl)amino)phosphoryl)amino)- 2-methylpropanoate and propyl 2-(((S)-((((R)-1-(6-amino-9H-purin- 9-yl)propan-2-yl)oxy)methyl)((4- isopropylbenzyl)amino)phosphoryl)amino)- 2-methylpropanoate [Example 5A]”, the “In Vivo Dog PK (μM): TFV-DP concentrations in dog PBMCs” value in series [1] was 7.7 µM. The “GI Tract stability (%)” value in series [2] worked out at 96.3%. The IC50 with HIV-1 (H9/IIB strain) (setting [3]) is 3.1 nM; in the series with HIV-1 (H9/IIB strain) (setting [4]) it was 17 nM.
